# Measurements as given in publication doi:10.1101/2023.07.11.548539v1, “A side-by-side comparison of peptide-delivered antisense antibiotics employing different nucleotide mimics” (bioRxiv, 2023).
# Oligonucleotides are written 5' to 3', each unit as a sugar letter and its base; * is a phosphorothioate linkage, no mark a phosphodiester; rarer units and linkages stand in square brackets, end groups in braces. Plain capitals give the bases only. d = 2'-deoxy (DNA)
# Tested on: Cy5 5'-labelled acpP target RNA (40 nt)
# Experiment: Electrophoretic mobility shift assay (EMSA)
# Type: binding, Salmonella enterica
# Settings: unconjugated ASO; ASO:RNA 1.25:1 and 2.5:1, 30 min RT, native 15 % PAGE
# Procedure: The electrophoretic mobility shift (EMSA) assay was performed with a Cy5 5’-labelled RNA (purchased from Eurofins) encompassing the sequence spanning nucleotides −20 to +20 of acpP relative to the translation start codon. For annealing, TM buffer (10 mM Tris-HCl, 50 mM MgCl2) was used. First, 20 µM RNA was denatured by incubation at 95 °C for 5 min followed by placement on ice. Then 1 µL of RNA was added to PCR tubes containing 8 µL of water. To this 1 µL of ASOs at the indicated concentrations (25 µM or 50 µM) were added to adjust ASO:RNA ratios of 1.25:1 and 2.5:1. As untreated negative control water was added instead of ASO, while a scrambled PNA sequence served as sequence-unspecific negative control (Figure 2 and Figure S2). These mixtures were incubated for 30 min at room temperature (RT), followed by the addition of 10 µL 2x Gel Loading (GL) buffer for subsequent loading on native 15 % PAA RNA gel without urea (20 µL/sample; 6 µL of a 50 bp DNA marker + 14 µL 1x GL). The gel was run at 100-120 V for 2-3 h, concomitantly stained with ethidium bromide for 15 min and imaged on Geldoc (Isogen Life Science B.V., De Meern, the Netherlands).
substance,measurement,value
"DNA-PTO: 10mer phosphorothioate-modified DNA antisense oligomer, sequence CTCATACTCT, targeting acpP (antisense dC*dT*dC*dA*dT*dA*dC*dT*dC*dT)",Hybridization to target RNA (band shift),did not interact with the target mRNA
